Legend:
[1] = test system: ECs in NSC/EC co-spheroids; assay: qRT-PCR of EC activity and angiogenic markers in co-spheroids encapsulated in gelatin-based hydrogel; format: cell-based; settings: FGF2 1 μg/mL in gelatin-based hydrogel, 3 days
Procedure: Total RNA from the adherent cells or cell spheroids formed on CS-HA substrates and embedded in the hydrogels was extracted by Trizol reagent (Invitrogen) as the manufacturer's instructions. One microgram of total RNA was further subjected to the cDNA synthesis. cDNA pool was generated by RevertAid First Strand cDNA Synthesis Kit (MBI Fermentas, Canada) using the standard protocol. qRT-PCR was performed by StepOnePlus thermos cycler (Applied Biosystems) using the DyNAmo Flash SYBR Green qPCR Kit (Finnzymes Oy, Finland). […]
To investigate whether EC activity in NSC/EC co-spheroids was promoted after encapsulation in gelatin-based hydrogel, the co-spheroids that were cultured on CS-HA substrates for 2 days were collected, and then encapsulated by gelatin-based hydrogel. After encapsulation for 3 days, the expression of several markers representative of mitogenic and angiogenic activities of ECs was determined.
On the other hand, a relative long-term culture of co-spheroids in the gelatin-based hydrogel containing FGF2 for 12 days was also performed, and the activity of ECs was analyzed by gene expression.
To further verify the angiogenic potential of ECs in the co-spheroids, more angiogenic markers for ECs including angiopoietin-1, angiopoietin-2, and tyrosine kinase 1 (Flt-1) were analyzed.

NSC/EC co-spheroids = assay: Morphology and relative size of co-spheroids encapsulated in hydrogels; format: cell-based; settings: FGF2 1 μg/mL
Procedure: To observe the morphological alteration of NSC/EC co-spheroids embedded in the hydrogels, the cells were labeled with fluorescent dyes before seeding on CS-HA substrates. After gelation, the culture medium was added and changed every 2 days. The morphologies of cell spheroids formed on CS/CS-HA substrates and encapsulated in the various hydrogels were observed by a fluorescence microscope (Leica, DMIRB), and the relative sizes of cell spheroids were determined by ImageJ software (National Institutes of Health, USA).
To support the long-term growth of NSC/EC co-spheroids, the co-spheroids derived from the CS-HA substrates were respectively embedded in the CS-based and gelatin-based hydrogels. […] On the other hand, the cell growth rates in the spheroids were evaluated by the spheroid size. Cells in EC mono-spheroids grew faster than those in NSC mono-spheroids, and the growth rate in NSC/EC co-spheroids was the slowest in both hydrogels, though the difference among each group was not statistically significant.
In some embodiments, the fibroblast growth factor 2 (FGF2) protein was used to promote the growth of co-spheroids in hydrogels. In order to evenly add FGF2 to hydrogels, FGF2 (PeproTech, USA) was added to the hydrogel solution and mixed before the gelation. The final concentration of the FGF2 protein in hydrogels was 1 μg/mL. […]

fibroblast growth factor 2 [FGF2]
expression of KDR, VEGF, ITGb1, VE-cadherin upon addition of FGF2 [1]: did not seem to be apparently affected | growth rates of the co-spheroids after FGF2 induction (NSC/EC co-spheroids; in CS-based hydrogel): not promoted | growth of co-spheroids after introduction of FGF2 (NSC/EC co-spheroids; in gelatin-based hydrogel, from 6 days after encapsulation): lightly enhanced

Reference: patent US11913030B2, “Method of preparing mimicking angiogenic co-spheroids and application thereof” (NATIONAL TAIWAN UNIVERSITY, priority 2018, dated 2024)
